The source of these data is patent US10039747B2, “Tetrahydrocyclopentapyrrole derivatives and a method for preparing the same” (Daewoong Pharmaceutical Co., Ltd., priority 2013, dated 2018).

The target in the first assay is T1, H+/K+-ATPase (Sus scrofa, UniProt P19156).
T1 construct: reaction buffer solution (60 mmol/l Tris-HCl buffer solution, pH 7.4) containing hog gastric vesicle; from tissue; host or cells: hog stomach (gastric vesicles, by centrifugation after Rabon et al. 1988)
T1 sequence (P19156 2-1034 limits assumed): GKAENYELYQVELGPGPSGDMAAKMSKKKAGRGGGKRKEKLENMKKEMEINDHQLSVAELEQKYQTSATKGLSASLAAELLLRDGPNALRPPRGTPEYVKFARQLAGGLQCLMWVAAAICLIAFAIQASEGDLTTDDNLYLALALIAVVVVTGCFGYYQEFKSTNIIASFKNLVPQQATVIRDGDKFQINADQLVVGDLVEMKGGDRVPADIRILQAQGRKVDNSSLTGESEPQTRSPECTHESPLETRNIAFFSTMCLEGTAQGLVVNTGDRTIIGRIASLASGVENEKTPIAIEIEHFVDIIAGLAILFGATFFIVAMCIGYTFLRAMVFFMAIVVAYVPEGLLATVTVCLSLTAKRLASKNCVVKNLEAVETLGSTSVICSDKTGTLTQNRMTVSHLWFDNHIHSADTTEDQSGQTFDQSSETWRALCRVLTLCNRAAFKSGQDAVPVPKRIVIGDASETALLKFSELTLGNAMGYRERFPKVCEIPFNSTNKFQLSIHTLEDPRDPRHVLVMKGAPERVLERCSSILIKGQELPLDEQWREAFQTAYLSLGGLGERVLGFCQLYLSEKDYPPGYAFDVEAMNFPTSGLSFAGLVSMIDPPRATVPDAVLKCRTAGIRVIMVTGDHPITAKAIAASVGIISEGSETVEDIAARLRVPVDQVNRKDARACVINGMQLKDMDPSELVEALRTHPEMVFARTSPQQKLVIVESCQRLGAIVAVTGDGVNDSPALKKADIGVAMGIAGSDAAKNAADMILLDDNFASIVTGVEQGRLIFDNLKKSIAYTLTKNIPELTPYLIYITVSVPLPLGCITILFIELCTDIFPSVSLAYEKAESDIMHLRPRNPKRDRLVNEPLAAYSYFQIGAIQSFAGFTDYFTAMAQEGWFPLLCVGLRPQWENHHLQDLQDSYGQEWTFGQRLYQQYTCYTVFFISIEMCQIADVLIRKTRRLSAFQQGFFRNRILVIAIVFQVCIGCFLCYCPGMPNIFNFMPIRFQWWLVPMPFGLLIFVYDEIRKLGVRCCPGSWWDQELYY
T1 sequence (P18434 whole entry partner): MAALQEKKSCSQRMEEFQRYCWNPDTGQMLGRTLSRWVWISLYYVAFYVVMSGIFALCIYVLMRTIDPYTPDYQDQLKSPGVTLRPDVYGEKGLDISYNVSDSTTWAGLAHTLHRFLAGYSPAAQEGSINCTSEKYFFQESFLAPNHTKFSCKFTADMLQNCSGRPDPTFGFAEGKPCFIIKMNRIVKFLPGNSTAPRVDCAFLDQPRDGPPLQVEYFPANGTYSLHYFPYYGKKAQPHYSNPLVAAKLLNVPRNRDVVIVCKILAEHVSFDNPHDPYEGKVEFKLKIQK
In words: Inhibition of proton pump (H+/K+-ATPase) activity in hog gastric vesicles. Type of assay: biochemical. Conditions: K+ specific H+/K+-ATPase activity, pH 7.4, 37° C. for 40 minutes, malachite green. A digest of the protocol: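 Hog gastric vesicles in 60 mmol/l Tris-HCl pH 7.4 with compound, started with ATP, 40 min at 37° C. Pi read by malachite green at 570 nm; K+-specific activity taken as difference between +K+ and −K+ activity. IC50 from % inhibition by 4-parameter logistic fit.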
`CNC1CCc2c1cn(S(=O)(=O)c1cccc(Cl)c1)c2-c1ccccc1F` (stereo not drawn) [Example 1] showed a 50% inhibitory concentration (IC50) of 340 nM. Same read-out and setting: under `CNC1CCc2c1cn(S(=O)(=O)c1cccc(F)c1)c2-c1ccc(F)cc1F` (stereo not drawn) [Example 113, 1-(2,4-difluorophenyl)-2-((3-fluorophenyl)sulfonyl)-N-methyl-2,4,5,6-tetrahydrocyclopenta[c]pyrrol-4-amine] stands 310 nM; under `Cc1oc(=O)oc1COC(=O)N(C)C1CCc2c1cn(S(=O)(=O)c1cccc(F)c1)c2-c1ccc(F)cc1F` (stereo not drawn) [Example 116, (5-methyl-2-oxo-1,3-dioxol-4-yl)methyl (1-(2,4-difluorophenyl)-2-((3-fluorophenyl)sulfonyl)-2,4,5,6-tetrahydrocyclopenta[c]pyrrol-4-yl)(methyl)carbamate], 26200 nM; under `CNC1CCc2c1cn(S(=O)(=O)c1cccnc1)c2-c1ccccc1F` (stereo not drawn) [Example 88, 1-(2-fluorophenyl)-N-methyl-2-(pyridin-3-ylsulfonyl)-2,4,5,6-tetrahydrocyclopenta[c]pyrrol-4-amine], 510 nM. Still for that read-out and setting: next, `CNC1CCc2c1cn(S(=O)(=O)c1cccc(F)c1)c2-c1ccc(C)cc1F` (stereo not drawn) [Example 47, 1-(2-fluoro-4-methylphenyl)-2-((3-fluorophenyl)sulfonyl)-N-methyl-2,4,5,6-tetrahydrocyclopenta[c]pyrrol-4-amine]: 470 nM; `CNC1CCc2c1cn(S(=O)(=O)c1cccs1)c2-c1ccccc1F` (stereo not drawn) [Example 87, 1-(2-fluorophenyl)-N-methyl-2-(thiophen-2-ylsulfonyl)-2,4,5,6-tetrahydrocyclopenta[c]pyrrol-4-amine]: 1440 nM. The compound `CNC1CCc2c1cn(S(=O)(=O)c1cccc(Cl)c1)c2-c1ccncc1` (stereo not drawn) [Example 42, 2-((3-chlorophenyl)sulfonyl)-N-methyl-1-(pyridin-4-yl)-2,4,5,6-tetrahydrocyclopenta[c]pyrrol-4-amine] registered an IC50 of 5430 nM. Same read-out and setting: next, `CNC1CCc2c1cn(S(=O)(=O)c1cccc(Cl)c1)c2-c1ccccc1C` (stereo not drawn) [Example 4, 2-((3-chlorophenyl)sulfonyl)-N-methyl-1-(o-tolyl)-2,4,5,6-tetrahydrocyclopenta[c]pyrrol-4-amine]: 610 nM; `CNC1CCc2c1cn(S(=O)(=O)c1cccc(C)c1)c2-c1cc(Cl)ccc1Cl` (stereo not drawn) [Example 53, 1-(2,5-dichlorophenyl)-N-methyl-2-(m-tolylsulfonyl)-2,4,5,6-tetrahydrocyclopenta[c]pyrrol-4-amine]: 770 nM; `CNC1CCc2c1cn(S(=O)(=O)c1cccc(N(C)C)c1)c2-c1ccccc1F` (stereo not drawn) [Example 56, 2-((3-(dimethylamino)phenyl)sulfonyl)-1-(2-fluorophenyl)-N-methyl-2,4,5,6-tetrahydrocyclopenta[c]pyrrol-4-amine]: 1720 nM. Same read-out and setting: next, `CNC1CCc2c1cn(S(=O)(=O)c1cccc(Cl)c1)c2-c1ccccc1Cl` (stereo not drawn) [Example 5, 1-(2-chlorophenyl)-2-((3-chlorophenyl)sulfonyl)-N-methyl-2,4,5,6-tetrahydrocyclopenta[c]pyrrol-4-amine]: 740 nM; `CNC1CCc2c1cn(Cc1cccc(C)c1)c2-c1ccccc1F` (stereo not drawn) [Example 110, 1-(2-fluorophenyl)-N-methyl-2-(3-methylbenzyl)-2,4,5,6-tetrahydrocyclopenta[c]pyrrol-4-amine]: 2890 nM; `Cc1oc(=O)oc1CN(C)C1CCc2c1cn(S(=O)(=O)c1cccc(Cl)c1)c2-c1ccccc1F` (stereo not drawn) [Example 119, 4-(((2-((3-chlorophenyl)sulfonyl)-1-(2-fluorophenyl)-2,4,5,6-tetrahydrocyclopenta[c]pyrrol-4-yl)(methyl)amino)methyl)-5-methyl-1,3-dioxol-2-one]: 2160 nM. On the same count and under the same terms, under `CNC1CCc2c1cn(Cc1ccccc1)c2-c1ccccc1F` (stereo not drawn) [Example 109, 2-benzyl-1-(2-fluorophenyl)-N-methyl-2,4,5,6-tetrahydrocyclopenta[c]pyrrol-4-amine] stands 6240 nM. `CNC1CCc2c1cn(S(=O)(=O)c1cccc(Cl)c1)c2-c1ccc(C(=O)OC)cc1` (stereo not drawn) [Example 15, methyl 4-(2-((3-chlorophenyl)sulfonyl)-4-(methylamino)-2,4,5,6-tetrahydrocyclopenta[c]pyrrol-1-yl)benzoate] registered an IC50 of 2900 nM.

Regarding `CNC1CCc2c1cn(S(=O)(=O)c1cccc(Cl)c1)c2-c1ccc(Cl)cc1Cl` (stereo not drawn) [Example 21, 2-((3-chlorophenyl)sulfonyl)-1-(2,4-dichlorophenyl)-N-methyl-2,4,5,6-tetrahydrocyclopenta[c]pyrrol-4-amine], 900 nM corresponded to half-maximal inhibition (IC50). As for `CNC1CCc2c1cn(S(=O)(=O)c1ccc(Oc3ccccc3)nc1)c2-c1ccccc1F` (stereo not drawn) [Example 96, 1-(2-fluorophenyl)-N-methyl-2-((6-phenoxypyridin-3-yl)sulfonyl)-2,4,5,6-tetrahydrocyclopenta[c]pyrrol-4-amine], the 50% inhibitory concentration (IC50) came out at 800 nM. The same measure, in the same setting: next, `CNC1CCc2c1cn(S(=O)(=O)c1cccc(Cl)c1)c2-c1ccccc1C1CC=CC1` (stereo not drawn) [Example 6, 2-((3-chlorophenyl)sulfonyl)-1-(2-(cyclopent-3-en-1-yl)phenyl)-N-methyl-2,4,5,6-tetrahydrocyclopenta[c]pyrrol-4-amine]: 1320 nM.

In the case of `CNC1CCc2c1cn(S(=O)(=O)c1ccccc1Cl)c2-c1ccc(C)cc1F` (stereo not drawn) [Example 48, 2-((2-chlorophenyl)sulfonyl)-1-(2-fluoro-4-methylphenyl)-N-methyl-2,4,5,6-tetrahydrocyclopenta[c]pyrrol-4-amine], half-maximal inhibition (IC50) required 1000 nM.

Consider `CNC1CCc2c1cn(S(=O)(=O)c1cccc(F)c1)c2-c1cc(Cl)ccc1Cl` (stereo not drawn) [Example 51, 1-(2,5-dichlorophenyl)-2-((3-fluorophenyl)sulfonyl)-N-methyl-2,4,5,6-tetrahydrocyclopenta[c]pyrrol-4-amine], for which the midpoint of inhibition, the IC50, lay at 650 nM. In turn, `CNC1CCc2c1cn(S(=O)(=O)c1cccc(Cl)c1)c2-c1ccc(F)cc1F` (stereo not drawn) [Example 19, 2-((3-chlorophenyl)sulfonyl)-1-(2,4-difluorophenyl)-N-methyl-2,4,5,6-tetrahydrocyclopenta[c]pyrrol-4-amine] came in with a half-maximal inhibitory concentration (IC50) of 280 nM. As for `CNC1CCc2c1cn(S(=O)(=O)c1cccc(Cl)c1)c2-c1ccsc1` (stereo not drawn) [Example 33, 2-((3-chlorophenyl)sulfonyl)-N-methyl-1-(thiophen-3-yl)-2,4,5,6-tetrahydrocyclopenta[c]pyrrol-4-amine], it took 320 nM to reach half-maximal inhibition (IC50). On the same count and under the same terms, under `CNC1CCc2c1cn(S(=O)(=O)c1cccc(Cl)c1)c2-c1cnn(C)c1` (stereo not drawn) [Example 30, 2-((3-chlorophenyl)sulfonyl)-N-methyl-1-(1-methyl-1H-pyrazol-4-yl)-2,4,5,6-tetrahydrocyclopenta[c]pyrrol-4-amine] stands 1040 nM; under `CNC1CCc2c1cn(S(=O)(=O)c1cccc(Cl)c1)c2Cc1ccccc1` (stereo not drawn) [Example 27, 1-benzyl-2-((3-chlorophenyl)sulfonyl)-N-methyl-2,4,5,6-tetrahydrocyclopenta[c]pyrrol-4-amine], 7010 nM. For `CNC1CCCc2c1cn(S(=O)(=O)c1cccc(OC(F)(F)F)c1)c2-c1ccccc1F` (stereo not drawn) [Example 125, 1-(2-fluorophenyl)-N-methyl-2-((3-(trifluoromethoxy)phenyl)sulfonyl)-4,5,6,7-tetrahydro-2H-isoindole-4-amine], 4420 nM corresponded to half-maximal inhibition (IC50).

In another assay the test system is basal gastric acid secretion in pylorus-ligated rat. Put plainly: Inhibition of basal gastric acid secretion in pylorus-ligated rat (Shay's rat model). It counts as in vivo. Conditions: total acid output, male SD rats, 3 mg/kg into the caudal vein, 5 hours after pylorus ligation. The procedure:
3) Effect of Inhibiting Basal Gastric Acid Secretion in Pylorus-Ligated Rat
The measurement of effect of inhibiting basal gastric acid secretion by the compound of the present invention was conducted according to shay's rat model (Shay, H., et al., 1945, gastroenterology, 5, p 43-61). Male Sprague Dawley (SD) rats (body weight 180-220 g) were divided into X groups (n=5), and fasted while feeding only water for 18 hours. Under isoflurane anesthesia, incision of abdominal cavity of rat was made to ligate pylorus, and, immediately after the ligation, to the control groups, only an aqueous solution of 10% ethanol, 20% polyethyleneglycol (PEG) 400 and 10% Cremophor was administered into the caudal vein, and to the other groups, a test compound suspended in an aqueous solution of 10% ethanol, 20% polyethyleneglycol 400, 10% Cremophor was administered into the caudal vein at a dose of 3 mg/kg/2 ml. […] The amount and the pH of the obtained gastric juice were measured, the acidity of gastric juice was measured with 0.1 N-NaOH volume (ueq/ml) required for automatic titration of gastric juice to pH 7.0, and total acid output was calculated by multiplying the acidity of gastric juice and the amount of gastric juice. % Inhibition activity of test compound=(total acid secretion of control group−total acid secretion of the group treated with test compound)/total acid secretion of control group×100
As to `CNC1CCc2c1cn(S(=O)(=O)c1cccc(Cl)c1)c2-c1ccccc1F` (stereo not drawn) [Example 1], the “% inhibition activity” value came to 92%.

For the compound `CNC1CCc2c1cn(S(=O)(=O)c1cccc(F)c1)c2-c1ccc(F)cc1F` (stereo not drawn) [Example 113, 1-(2,4-difluorophenyl)-2-((3-fluorophenyl)sulfonyl)-N-methyl-2,4,5,6-tetrahydrocyclopenta[c]pyrrol-4-amine], the “% inhibition activity” value was determined as 52%.

The term IC50 denotes the concentration that gives 50% inhibition.
